Measurements published in ChEMBL document CHEMBL4619828, “Discovery of Potent and Orally Bioavailable Small Molecule Antagonists of Toll-like Receptors 7/8/9 (TLR7/8/9)” (ACS Med Chem Lett, 2020).

Key:
[1] = Clearance in mouse at 3 mg/kg, iv; assay type: ADME, organism-based; conditions: in vivo
[2] = Cmax in mouse at 15 mg/kg, po; assay type: ADME, organism-based; set-up: dose 15 mg/kg, route oral; conditions: in vivo
Toll-like receptor 9 [3] = target: T1, Toll-like receptor 9 (Homo sapiens, UniProt Q9NR96); test: Agonist activity at human TLR9 overexpressed in HEK-Blue cells assessed as NFkappaB expression by reporter gene assay; assay type: cell-based
T1 sequence (Q9NR96 whole entry): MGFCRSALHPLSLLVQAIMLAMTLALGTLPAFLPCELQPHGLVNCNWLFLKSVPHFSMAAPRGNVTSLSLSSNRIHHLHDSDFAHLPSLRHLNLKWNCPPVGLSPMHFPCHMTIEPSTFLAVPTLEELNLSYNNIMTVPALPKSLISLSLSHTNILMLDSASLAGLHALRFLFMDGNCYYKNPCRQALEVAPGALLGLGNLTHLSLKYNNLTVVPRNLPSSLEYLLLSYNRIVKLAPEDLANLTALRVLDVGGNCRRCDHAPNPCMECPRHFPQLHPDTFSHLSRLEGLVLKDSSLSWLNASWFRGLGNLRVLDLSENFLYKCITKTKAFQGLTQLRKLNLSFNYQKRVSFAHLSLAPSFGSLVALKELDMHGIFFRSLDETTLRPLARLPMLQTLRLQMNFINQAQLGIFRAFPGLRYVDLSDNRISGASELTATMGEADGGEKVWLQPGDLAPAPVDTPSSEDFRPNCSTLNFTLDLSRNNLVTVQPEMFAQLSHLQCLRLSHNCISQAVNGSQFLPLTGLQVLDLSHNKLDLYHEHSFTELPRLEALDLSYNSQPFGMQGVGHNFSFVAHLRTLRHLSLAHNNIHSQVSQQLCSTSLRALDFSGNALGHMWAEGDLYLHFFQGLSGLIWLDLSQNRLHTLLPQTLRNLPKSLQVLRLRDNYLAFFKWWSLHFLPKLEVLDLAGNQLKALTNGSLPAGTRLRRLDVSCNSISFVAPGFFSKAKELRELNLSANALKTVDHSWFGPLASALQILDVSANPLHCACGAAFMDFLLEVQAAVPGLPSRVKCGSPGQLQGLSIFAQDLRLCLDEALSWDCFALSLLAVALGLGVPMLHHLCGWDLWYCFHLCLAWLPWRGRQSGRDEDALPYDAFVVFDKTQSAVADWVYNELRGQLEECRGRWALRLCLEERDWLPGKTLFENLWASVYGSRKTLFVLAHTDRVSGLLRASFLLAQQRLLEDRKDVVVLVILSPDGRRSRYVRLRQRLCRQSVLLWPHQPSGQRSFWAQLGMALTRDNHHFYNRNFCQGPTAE

Toll-like receptor 9 [4] = target: T2, Toll-like receptor 9 (Mus musculus, UniProt Q9EQU3); test: Antagonist activity at TLR9 in mouse whole blood cells assessed as inhibition of ODN-2216 induced IL-6 production by ELISA; assay type: cell-based
T2 sequence (Q9EQU3 whole entry): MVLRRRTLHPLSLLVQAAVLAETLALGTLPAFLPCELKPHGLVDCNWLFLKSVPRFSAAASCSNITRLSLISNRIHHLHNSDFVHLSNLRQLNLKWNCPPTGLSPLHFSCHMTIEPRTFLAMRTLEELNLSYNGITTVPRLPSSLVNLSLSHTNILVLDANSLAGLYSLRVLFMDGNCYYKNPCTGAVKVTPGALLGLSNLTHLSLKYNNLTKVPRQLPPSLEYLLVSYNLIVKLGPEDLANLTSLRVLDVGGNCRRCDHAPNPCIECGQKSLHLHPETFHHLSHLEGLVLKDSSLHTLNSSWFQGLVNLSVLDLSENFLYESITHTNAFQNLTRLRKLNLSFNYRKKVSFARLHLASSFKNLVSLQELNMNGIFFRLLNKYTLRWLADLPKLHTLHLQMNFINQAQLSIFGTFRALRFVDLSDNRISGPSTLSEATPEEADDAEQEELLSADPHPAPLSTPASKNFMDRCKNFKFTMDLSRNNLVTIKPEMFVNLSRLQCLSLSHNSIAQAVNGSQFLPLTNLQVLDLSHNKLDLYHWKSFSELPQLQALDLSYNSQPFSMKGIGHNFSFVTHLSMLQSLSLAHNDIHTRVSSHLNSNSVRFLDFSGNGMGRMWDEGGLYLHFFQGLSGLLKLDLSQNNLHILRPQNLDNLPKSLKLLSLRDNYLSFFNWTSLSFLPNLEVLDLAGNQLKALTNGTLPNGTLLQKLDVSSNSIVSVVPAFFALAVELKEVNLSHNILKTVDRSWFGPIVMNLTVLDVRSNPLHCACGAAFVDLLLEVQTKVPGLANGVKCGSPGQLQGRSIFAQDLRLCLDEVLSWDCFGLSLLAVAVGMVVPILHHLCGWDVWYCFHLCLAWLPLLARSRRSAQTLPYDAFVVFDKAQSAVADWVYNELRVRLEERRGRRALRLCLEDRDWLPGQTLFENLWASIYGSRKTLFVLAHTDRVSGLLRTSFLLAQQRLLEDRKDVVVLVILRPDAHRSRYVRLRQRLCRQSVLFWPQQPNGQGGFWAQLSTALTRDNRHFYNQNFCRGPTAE

For CNCCN1CCC(c2ccc3[nH]c(-c4ccc(OC)c(OC)c4)c(C(C)C)c3c2)CC1, the clearance [1] was 7.7 mL/min/kg, the Cmax [2] was 1630 nM and the IC50 (Toll-like receptor 9 [3]) was > 50000 nM. It also gave an IC50 (Toll-like receptor 9 [4]) of 510 nM.
